In US12319655B2, “RAF kinase inhibitors and methods of use thereof” (Deciphera Pharmaceuticals, LLC, priority 2021, dated 2025):

Experiments:
[1] = target: A-Raf kinase (SEQ. ID No: 1) (Homo sapiens (Human), UniProt P10398, Y301D/Y302D); assay: Biochemical Assay for A-Raf (2); details: Table J, biochemical assay (2); read-out: ARAF (2)
Protocol: Biochemical Assay for A-Raf (2)
Activity of A-Raf kinase (SEQ. ID No: 1) was determined spectroscopically using a coupled pyruvate kinase/lactate dehydrogenase assay that continuously monitors the ATP hydrolysis-dependent oxidation of NADH (e.g., Schindler et al., Science, 2000, 289, 1938-1942). Assays were conducted in 384-well plates (25 μL final volume) using 20 nM A-Raf (Eurofins), 1.5 units pyruvate kinase, 2.1 units lactate dehydrogenase, 1 mM phosphoenol pyruvate, 0.7 mM NADH, 100 nM MEK (SignalChem), and 1 mM ATP in assay buffer (100 mM Tris, pH 7.5, 15 mM MgCl2, 0.5 mM DTT, 0.1% octyl-glucoside, 0.002% (w/v) BSA, and 0.002% Triton X-100). Inhibition of A-Raf was measured by adding serial diluted test compound (final assay concentration of 1% DMSO). A decrease in absorption at 340 nm was monitored hourly for 4 h at 30° C. on a multi-mode microplate reader (BioTek). The reaction rate was calculated using the 3 to 4 h time frame. The reaction rate at each concentration of compound was converted to percent inhibition using controls (i.e., reaction with no test compound and reaction with a known inhibitor) and IC50 values were calculated by fitting a four-parameter sigmoidal curve to the data using Prism (GraphPad software).

A375 cells = assay: A375 Cell Proliferation Assay (2); type: cell-based; details: Homo sapiens, A-375
Protocol: A375 Cell Proliferation Assay (2)
A375 cells (catalog (#CRL-1619) are obtained from the American Type Culture Collect (ATTC, Manassas, VA). Briefly, cells were grown in DMEM High Glucose supplemented with 10% characterized fetal bovine serum (Invitrogen, Carlsbad, CA) and 1% Penicillin/Streptomycin/L-Glutamine at 37° C., 5% CO2, and 95% humidity. Cells are expanded until reaching 70-95% confluency at which point they are sub-cultured or harvested for assay use. Using the Beckman Coulter Echo 650, a serial dilution of test compound is dispensed into a 384-well black clear bottom plate in triplicate. Six hundred twenty-five cells are added per well in 50 μL complete growth medium in the 384-well plate. Plates are incubated for 67-72 h at 37° C., 5% CO2, and 95% humidity. At the end of the incubation, 10 μL of a 440 μM solution of resazurin (Sigma, St. Louis, MO) in PBS is added to each well of the plate and plates are incubated for an additional 3-6 h at 37° C., 5% CO2, and 95% humidity. Plates are read on a Synergy2 or equivalent reader (Biotek, Winooski VT) using an excitation of 540 nm and an emission of 600 nm. Data is analyzed using Prism software (GraphPad, San Diego, CA) to calculate IC50 values.

H2405 cells = assay: H2405 Cell Proliferation Assay (2); type: cell-based; details: Homo sapiens, NCI-H2405
Protocol: H2405 Cell Proliferation Assay (2)
H2405 cells (catalog #CRL-5994) are obtained from the American Type Culture Collect (ATTC, Manassas, VA). Briefly, cells were grown in RPMI 1640 supplemented with 5% characterized fetal bovine serum (Invitrogen, Carlsbad, CA) and 1% Penicillin/Streptomycin/L-Glutamine at 37° C., 5% CO2, and 95% humidity. Cells are expanded until reaching 70-95% confluency at which point they are sub-cultured or harvested for assay use. A serial dilution of test compound is dispensed into a 384-well black clear bottom plate in triplicate. Seven hundred fifty cells are added per well in 50 μL complete growth medium in the 384-well plate. Plates are incubated for 67-72 h at 37° C., 5% CO2, and 95% humidity. At the end of the incubation, 10 μL of a 440 μM solution of resazurin (Sigma, St. Louis, MO) in PBS is added to each well of the plate and plates are incubated for an additional 5-6 h at 37° C., 5% CO2, and 95% humidity. Plates are read on a Synergy2 or equivalent reader (Biotek, Winooski VT) using an excitation of 540 nm and an emission of 600 nm. Data is analyzed using Prism software (GraphPad, San Diego, CA) to calculate IC50 values

A-Raf kinase (SEQ. ID No: 1), sequence (P10398 other isoform, or with tags, fused parts or gaps Y301D (already in the parent)/Y302D (already in the parent)): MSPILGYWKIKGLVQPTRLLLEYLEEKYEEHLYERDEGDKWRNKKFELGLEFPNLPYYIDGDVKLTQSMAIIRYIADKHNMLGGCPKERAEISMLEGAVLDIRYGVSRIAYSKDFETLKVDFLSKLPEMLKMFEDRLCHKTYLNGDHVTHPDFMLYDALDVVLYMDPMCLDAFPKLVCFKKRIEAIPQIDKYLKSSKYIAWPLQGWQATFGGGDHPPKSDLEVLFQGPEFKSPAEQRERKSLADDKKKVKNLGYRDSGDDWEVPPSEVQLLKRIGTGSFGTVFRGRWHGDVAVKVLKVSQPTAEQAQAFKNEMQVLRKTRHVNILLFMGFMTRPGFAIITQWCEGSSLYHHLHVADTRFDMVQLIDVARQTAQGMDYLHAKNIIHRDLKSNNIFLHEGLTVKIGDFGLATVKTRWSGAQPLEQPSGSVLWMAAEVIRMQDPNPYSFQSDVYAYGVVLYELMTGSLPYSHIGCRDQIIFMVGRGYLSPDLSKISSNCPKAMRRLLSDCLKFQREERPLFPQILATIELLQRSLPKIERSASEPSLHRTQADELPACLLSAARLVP

SMILES	IC50 [1] [nM]	IC50 (A375 cells) [nM]	IC50 (H2405 cells) [nM]
CNC(=O)c1cc(-c2cncc(-c3cc(NC(=O)c4ccnc(C(C)C)c4)ccc3C)c2)ncn1 [Example 446]	1000 to 10000	100 to 500	100 to 500
Cc1ccc(NC(=O)c2ccnc(C(C)(C)F)c2)cc1-c1ccnc(-c2ccnc(C(=O)NCCO)c2)c1 [Example 448]	1000 to 10000	100 to 500	100 to 500
CNC(=O)c1cc(-c2cc(-c3cc(NC(=O)c4ccnc(C(C)(C)F)c4)ccc3C)cc(OCCO)n2)ccn1 [Example 449]	1000 to 10000	≤ 100	≤ 100
Cc1ccc(NC(=O)c2ccnc(C(C)(C)F)c2)cc1-c1ccnc(-c2ccnc(C(=O)NC3CN(C)C3)c2)c1 [Example 450]	1000 to 10000	100 to 500	100 to 500
CNC(=N)c1cc(-c2cc(-c3cc(NC(=O)c4ccnc(C(C)(C)F)c4)ccc3C)ccn2)ccn1 [Example 452]	1000 to 10000	100 to 500	100 to 500
Cc1ccc(NC(=O)c2ccnc(C(C)(C)F)c2)cc1-c1ccnc(-c2ccnc(C(=O)NCCN(C)C)c2)c1 [Example 453]	1000 to 10000	100 to 500	100 to 500
Cc1ncc(NC(=O)c2ccnc(C(C)(C)F)c2)cc1-c1ccnc(-c2ccnc(NC(=O)C3CC3)c2)c1 [Example 454]	500 to 1000	≤ 100	≤ 100
Cc1ccc(NC(=O)c2ccnc(C(C)(C)F)c2)cc1-c1ccnc(-c2ccnc(NC(=O)C3CC3)c2)c1 [Example 455]	100 to 500	≤ 100	≤ 100
Cc1ccc(NC(=O)c2ccnc(C(C)(C)C#N)c2)cc1-c1ccnc(-c2ccnc(NC(=O)C3CC3)c2)c1 [Example 456]	100 to 500	≤ 100	≤ 100
Cc1ccc(NC(=O)c2ccnc(C3(C#N)CC3)c2)cc1-c1ccnc(-c2ccnc(NC(=O)C3CC3)c2)c1 [Example 457]	100 to 500	≤ 100	≤ 100
Cc1ccc(NC(=O)c2ccnc(C3CC3)c2)cc1-c1ccnc(-c2ccnc(NC(=O)C3CC3)c2)c1 [Example 458]	100 to 500	100 to 500	≤ 100
Cc1ccc(NC(=O)c2ccnc(C(C)(F)F)c2)cc1-c1ccnc(-c2ccnc(NC(=O)C3CC3)c2)c1 [Example 459]	100 to 500	≤ 100	≤ 100
CNC(=O)c1cc(-c2cc(-c3cc(NC(=O)c4ccnc(C5CC5)c4)ccc3C)ccn2)ccn1 [Example 460]	500 to 1000	100 to 500	100 to 500
Cc1ncc(NC(=O)c2ccnc(C3(C#N)CC3)c2)cc1-c1ccnc(-c2ccnc(NC(=O)C3CC3)c2)c1 [Example 461]	100 to 500	≤ 100	≤ 100
CNC(=O)c1cc(-c2cc(-c3cc(NC(=O)c4ccnc(C5CC5)c4)cnc3C)ccn2)ccn1 [Example 462]	1000 to 10000	1000 to 10000	500 to 1000
CNC(=O)c1cc(-c2cc(-c3cc(NC(=O)c4ccnc(C(C)C)c4)cnc3C)ccn2)ccn1 [Example 465]	1000 to 10000	500 to 1000	100 to 500
Cc1ncc(NC(=O)c2ccnc(C(C)(F)F)c2)cc1-c1ccnc(-c2ccnc(NC(=O)C3CC3)c2)c1 [Example 466]	500 to 1000	100 to 500	100 to 500
Cc1ccc(NC(=O)c2ccnc(C(C)C)c2)cc1-c1ccnc(-c2ccnc(NC(=O)C3CC3)c2)c1 [Example 467]	100 to 500	≤ 100	≤ 100

SMILES	IC50 [1] [nM]	IC50 (A375 cells) [nM]	IC50 (H2405 cells) [nM]
Cc1ncc(NC(=O)c2ccnc(C(C)C)c2)cc1-c1ccnc(-c2ccnc(NC(=O)C3CC3)c2)c1 [Example 468]	100 to 500	100 to 500	≤ 100
CNC(=O)c1cc(-c2cc(-c3cc(NC(=O)c4ccnc(C(C)(C)F)c4)ccc3C)c(F)cn2)ccn1 [Example 469]	1000 to 10000	100 to 500	100 to 500
CNC(=O)c1cc(-c2cc(-c3cc(NC(=O)c4ccnc(C(C)(C)F)c4)ccc3C)cc(C)n2)ccn1 [Example 470]	1000 to 10000	100 to 500	≤ 100
CNC(=O)c1cc(-c2cc(-c3cc(NC(=O)c4ccnc(C(C)(C)F)c4)ccc3C(F)(F)F)ccn2)ccn1 [Example 471]	100 to 500	1000 to 10000	1000 to 10000
CNC(=O)c1cc(-c2cc(-c3cc(NC(=O)c4ccnc(C(C)(C)F)c4)ccc3C)c(C)cn2)ccn1 [Example 472]	1000 to 10000	100 to 500	100 to 500
CNC(=O)c1cc(-c2cc(-c3cc(NC(=O)c4ccnc(C(C)(C)F)c4)ccc3C)cnn2)ccn1 [Example 473]	1000 to 10000	≤ 100	100 to 500
CNC(=O)c1cc(-c2cc(-c3cc(NC(=O)c4ccnc(C(C)(C)F)c4)ccc3C)ncn2)ccn1 [Example 474]	500 to 1000	≤ 100	≤ 100
CNC(=O)c1cc(-c2cc(-c3cc(F)cc(NC(=O)c4ccnc(C(C)(C)F)c4)c3F)ccn2)ccn1 [Example 475]	1000 to 10000	1000 to 10000	1000 to 10000
Cc1ccc(NC(=O)c2ccnc(C(C)(C)F)c2)cc1-c1ccnc(-c2ccnc(C(N)=O)c2)c1 [Example 476]	500 to 1000	≤ 100	≤ 100
CNC(=O)c1cc(-c2cc(-c3cc(NC(=O)c4cnnc(C(F)(F)F)c4)ccc3C)ccn2)ccn1 [Example 477]	1000 to 10000	1000 to 10000	1000 to 10000
CNC(=O)c1cc(-c2cc(-c3cc(NC(=O)c4ccnc(C(C)(C)F)c4)cc(F)c3F)ccn2)ccn1 [Example 478]	1000 to 10000	1000 to 10000	≤ 100
CNC(=O)c1cc(-c2cc(-c3cc(NC(=O)c4ccnc(C(C)(C)F)c4)ccc3F)ccn2)ccn1 [Example 479]	100 to 500	100 to 500	100 to 500
CNC(=O)c1cc(-c2cc(-c3cc(NC(=O)c4ccnc(C(C)(C)F)c4)cc(F)c3C)ccn2)ccn1 [Example 480]	1000 to 10000	100 to 500	100 to 500
CNC(=O)c1cc(-c2cc(-c3cc(NC(=O)c4ccnc(C(C)(C)F)c4)ccn3)ccn2)ccn1 [Example 481]	1000 to 10000	1000 to 10000	1000 to 10000
CNC(=O)c1cc(-c2cc(-c3cc(NC(=O)c4ccnc(C(C)(C)F)c4)c(F)cc3F)ccn2)ccn1 [Example 482]	500 to 1000	100 to 500	100 to 500
Cc1cc(-c2cc(NC(=O)c3ccnc(C(C)(C)F)c3)ccc2C)cc(-c2ccnc(C#N)c2)n1 [Example 483]	1000 to 10000	1000 to 10000	1000 to 10000
Cc1cc(-c2cc(NC(=O)c3ccnc(C(C)(C)F)c3)ccc2C)cc(-c2ccnc(C(N)=O)c2)n1 [Example 484]	500 to 1000	≤ 100	100 to 500
